Source: patent US20220315539A1, “PHENAZINE DERIVATIVE AND USE THEREOF FOR THE TREATMENT OF CANCER” (CENTRE NATIONAL DE LA RECHERCHE SCIENTIFIQUE, priority 2019, published 2022)
Blank lines part the entries; values can stand above or below the compound they belong to.

Tests used:
MCF7 cells = test: One-photon photodynamic therapy in vitro, MTT viability; format: cell-based, human; settings: MCF7, 100 nM, 5 h incubation, one-photon irradiation (λirrad.=514 nm), MTT two days later
Protocol: FIG. […] Two days later, the cells were subjected to a colorimetric cell viability assay (MTT). The experiment was carried out 3 times.
The inventors tested the effect of the compounds according to the invention in photodynamic therapy. MCF7 cells were incubated with the compound of formula
[…] Two days later, the cells were subjected to a colorimetric cell viability assay (MTT).

MCF-7 cells [1] = test: Two-photon photodynamic therapy in vitro; format: cell-based, human; settings: two-photon λirrad.=810 nm, irradiation 5 seconds, 100 nM
Protocol: As a control, untreated MCF7 cells without irradiation (A1), after irradiation at 790 nm (B1) or 810 nm (C1) are presented. […] Data are means of three experiments±standard deviation.
Two-photon photodynamic therapy (λirrad.=810 nm) has shown very encouraging results, since nearly 50% of tumor cells are killed without optimization (irradiation for only 5 seconds at a very low concentration of 100 nM of compound according to the invention).

[2] = Fluorescence quantum yield in acetonitrile; format: physicochemical; settings: for quantum yield of fluorescence ϕf: in MeCN, excitation at 483 nm, emission 637 nm (II) or 550 nm (II-H), reference tetraphenylporphyrin
Text: The inventors then set out to measure the value ϕf of the quantum yield of fluorescence of the following compound taken up in acetonitrile
To do this, the inventors measured the absorbance (relative intensity) as a function of the wavelength (in nm) in the presence of increasing doses of 1,8-[…] (DBU—0 to 2 equivalents).
Phenazinium II and its II-H conjugate base fluoresce in MeCN at neutral or basic pH. […] The reference used for the calculation of the fluorescence quantum yield is tetraphenylporphyrin in acetonitrile (ϕf=0.15).
Calculation of ϕ: It is determined by measuring the emission intensity of a solution of known concentration; the reference used to calculate the fluorescence quantum yield here is tetraphenylporphyrin in acetonitrile (ϕf=0.15).

[3] = Singlet oxygen (1O2) production quantum yield; format: physicochemical
Protocol: The absorption spectra were measured with a Perkin-Elmer double beam UV-visible spectrophotometer (Lambda EZ 210). The fluorescence spectrum was measured with a Fluorolog FL3-222 spectrofluorimeter (Horiba Jobin Yvon, Longjumeau, France) equipped with a 450 W xenon arc lamp, a thermostated compartment (25° C.), a photomultiplier UV-visible R928 ([…] Japan) and an InGaAs infrared detector cooled with liquid nitrogen (DSS-16A020L Electro-Optical System Inc, Phoenixville, Pa., USA). The excitation beam is separated by an SPEX dual grating monochromator (1200 lines/mm blazed at 330 nm). The fluorescence was measured by the UV-Visible detector via the SPEX double grating emission monochromator (1200 lines/mm blazed at 500 nm). The production of singlet oxygen was measured by the infrared detector via the SPEX double grating emission monochromator (600 lines/mm blazed at 1 μm). All spectra were measured using 4-sided quartz cuvettes. The absorbance values at the excitation wavelength of the references and samples have been adjusted to approximately 0.2.
By this method, the inventors were able to measure the quantum yield ϕΔ, which is 0.11 for the compound

MCF-7 tumor cells = test: Internalization kinetics with CLARIOstar plate reader; format: cell-based, human; settings: MCF-7, in less than 24 hours
Protocol: Data are percent internalization (remaining fluorescence/total fluorescence) as a function of time in hours. Data are means of three experiments±standard deviation.
The internalization kinetics were carried out with a CLARIOstar reader in order to quantify the internalization of the compound in the MCF-7 tumor cells. The values, corresponding to the ratio of the residual fluorescence/the total fluorescence, are presented in the form of means of three experiments, ±the standard deviation.

[4] = tested on: healthy donor fibroblasts; test: Internalization by flow cytometry (red fluorescent cells); format: cell-based; settings: 0.5 nM
Protocol: by healthy living cells of the fibroblast type. Cells were treated with 0.5 nM compound for 1, 3, 6 or 24 h and red fluorescence was measured by flow cytometry. […] The x-axis represents the incubation time in hours and the y-axis the percentage of red fluorescent cells.
(§1) To do this, MCF-7 cells or healthy donor fibroblasts have been treated or not with 0.5 nM of compound of formula
(§2) for 1, 3, 6 or 24 h, and cell fluorescence was assessed by flow cytometry by detecting the number of cells with red fluorescence.

MCF-7 cells [5] = test: as above; format: cell-based, human; settings: MCF-7, 0.5 nM
Protocol: by live MCF-7 cancer cells. Cells were treated with 0.5 nM compound for 1, 3, 6 or 24 h and red fluorescence was measured by flow cytometry. […] The x-axis represents the incubation time in hours and the y-axis the percentage of red fluorescent cells.
as §1, §2

Compound: CCCCCCCCNc1ccc2nc3cc(NC(C)(C)C)c(N)cc3[n+](CCCCCCCC)c2c1 [drawing 45]
tumor cells killed (MCF7 cells): 98% | tumor cells killed (MCF-7 cells [1]): ~50%

Compound: CCCCCCCCNc1ccc2nc3cc(NC(C)(C)C)c(=N)cc-3n(CCCCCCCC)c2c1 [II-H]
quantum yield of fluorescence ϕf [2]: 0.08

Compound: CCCCCCCCNc1ccc2nc3cc(NC(C)(C)C)c(N)cc3[n+](CCCCCCCC)c2c1 [drawing 47]
cells that have internalized the compound ([4]; 6 h incubation): 18% | cells that have internalized the compound ([4]; 24 h incubation): 24% | cells that have internalized the compound (MCF-7 cells [5]; 6 h incubation): 46% | cells that have internalized the compound (MCF-7 cells [5]; 24 h incubation): 90%

Further lines, with some results ahead:

singlet oxygen quantum yield ϕΔ [3]: 0.11
Compound: CCCCCCCCNc1ccc2nc3cc(NC(C)(C)C)c(N)cc3[n+](CCCCCCCC)c2c1 [drawing 44]

quantum yield of fluorescence ϕf [2]: 0.76 | brightness (B=ε×ϕ) ([2]; in acetonitrile): about 50000
Compound: CCCCCCCCNc1ccc2nc3cc(NC(C)(C)C)c(N)cc3[n+](CCCCCCCC)c2c1 [II]
percent internalization (compound penetrating the cell) (MCF-7 tumor cells): 10%
